# Activity calls are given as the source filed them. No cut-off for these calls is given here. Where a SMILES comes first, the peptide text is derived from it.
# Columns and labels:
# HeLa = experiment: Cytotoxicity against human HeLa cells at 100 ug/ml after 24 hrs by MTT assay relative to control; assay type: functional
# [1] = Toxicity in human erythrocytes assessed as hemolysis at 100 ug/ml; assay type: cell-based, Erythrocyte; conditions: read-out: Activity
# Escherichia coli [2] = experiment: Antibacterial activity against Escherichia coli ATCC 25922 after 24 hrs in Mueller-Hinton broth medium; assay type: functional
# Acinetobacter baumannii = experiment: Antibacterial activity against Acinetobacter baumannii ATCC 19606 after 24 hrs in Mueller-Hinton broth medium; assay type: functional
# [3] = system: Bordetella bronchiseptica; experiment: Antibacterial activity against Bordetella bronchiseptica CUN 11844-99 after 24 hrs in Mueller-Hinton broth medium; assay type: functional
# Brucella abortus [4] = experiment: Antibacterial activity against Brucella abortus 9.49 (per-) after 48 hrs in Mueller-Hinton broth medium; assay type: functional
# Pseudomonas aeruginosa = experiment: Antibacterial activity against Pseudomonas aeruginosa CUN 4158-02 after 24 hrs in Mueller-Hinton broth medium; assay type: functional
# Staphylococcus aureus = experiment: Antibacterial activity against methicillin-resistant Staphylococcus aureus ATCC 43300 after 24 hrs in Mueller-Hinton broth medium; assay type: functional
# Brucella abortus [5] = experiment: Antibacterial activity against Brucella abortus 9.19 (per-) after 24 hrs in Mueller-Hinton broth medium; assay type: functional
# Escherichia coli [6] = experiment: Antibacterial activity against Escherichia coli K12 ATCC 23716 after 24 hrs in Mueller-Hinton broth medium; assay type: functional
# Escherichia coli [7] = experiment: Antibacterial activity against Escherichia coli K12 ATCC 23716 in 10% Luria-Bertani medium/90% Hepes buffer at pH 7.0; assay type: functional
Compound,Activity (HeLa),hemolysis at 100 ug/ml [1],"MBC (Escherichia coli [2]; ATCC 25922, 24 h)","MIC (Escherichia coli [2]; ATCC 25922, 24 h)","MBC (Acinetobacter baumannii; ATCC 19606, 24 h)","MIC (Acinetobacter baumannii; ATCC 19606, 24 h)",MBC [3],MIC [3],MIC (Brucella abortus [4]),MBC (Pseudomonas aeruginosa),MIC (Pseudomonas aeruginosa),"MBC (Staphylococcus aureus; ATCC 43300, 24 h)","MIC (Staphylococcus aureus; ATCC 43300, 24 h)",MBC (Brucella abortus [5]),"MBC (Escherichia coli [6]; K12, 24 h)","MIC (Escherichia coli [6]; K12, 24 h)",MBC (Escherichia coli [7]),MIC (Escherichia coli [7]),also measured
CC[C@H](C)[C@H](N)C(=O)N[C@@H](CO)C(=O)N[C@@H](CCCCN)C(=O)N[C@@H](CCCNC(=N)N)C(=O)N[C@H](C(=O)N[C@@H](CC(C)C)C(=O)N[C@H](C(=O)NCC(=O)N[C@@H](CCCCN)C(=O)N[C@@H](CCCCN)C(=O)O)[C@@H](C)O)[C@@H](C)CC (H-ISKRILTGKK-OH),inactive,< 5%,> 256 µg/mL,> 256 µg/mL,> 256 µg/mL,> 256 µg/mL,> 256 µg/mL,> 256 µg/mL,> 64 µg/mL,> 256 µg/mL,> 256 µg/mL,> 256 µg/mL,> 256 µg/mL,> 256 µg/mL,> 256 µg/mL,> 256 µg/mL,> 200 µg/mL,> 200 µg/mL,
CC[C@H](C)[C@H](NC(=O)[C@H](CCCCN)NC(=O)[C@H](CCCCN)NC(=O)[C@H](CO)NC(=O)[C@@H](NC(=O)CNC(=O)[C@H](CC(C)C)NC(=O)[C@@H](NC(=O)[C@@H](N)CCCCN)[C@@H](C)CC)C(C)C)C(=O)N[C@@H](CCSC)C(=O)N[C@@H](CCCNC(=N)N)C(=O)N[C@@H](CCCNC(=N)N)C(=O)N[C@H](C(=O)N[C@@H](CO)C(=O)N[C@@H](CCCCN)C(=O)N[C@@H](CC(=O)O)C(=O)N[C@H](C(=O)N[C@@H](CC(C)C)C(=O)N[C@H](C(=O)NCC(=O)N[C@@H](CCCCN)C(=O)N[C@@H](CCCCN)C(N)=O)[C@@H](C)O)[C@@H](C)CC)[C@@H](C)CC (H-KILGVSKKIMRRISKDILTGKK-NH2),inactive,< 5%,32 µg/mL,32 µg/mL,16 µg/mL,16 µg/mL,2 µg/mL,2 µg/mL,16 µg/mL,64 µg/mL,32 µg/mL,> 256 µg/mL,> 256 µg/mL,> 256 µg/mL,16 µg/mL,16 µg/mL,12.5 µg/mL,6.25 µg/mL,
CC[C@H](C)[C@H](NC(=O)[C@H](CCCNC(=N)N)NC(=O)[C@H](CCCCN)NC(=O)[C@H](CO)NC(=O)[C@@H](NC(=O)CNC(=O)[C@H](CC(C)C)NC(=O)[C@@H](NC(=O)[C@@H](N)CCCCN)[C@@H](C)CC)C(C)C)C(=O)N[C@@H](CC(C)C)C(=O)N[C@H](C(=O)NCC(=O)N[C@@H](CCCCN)C(=O)N[C@@H](CCCCN)C(N)=O)[C@@H](C)O (H-KILGVSKRILTGKK-NH2),inactive,< 5%,> 256 µg/mL,> 256 µg/mL,> 256 µg/mL,> 256 µg/mL,> 256 µg/mL,256 µg/mL,> 128 µg/mL,> 256 µg/mL,> 256 µg/mL,> 256 µg/mL,> 256 µg/mL,> 12.8 µg/mL,> 256 µg/mL,256 µg/mL,> 100 µg/mL,50 µg/mL,
CC[C@H](C)[C@H](NC(=O)[C@H](CCCCN)NC(=O)[C@H](CCCCN)NC(=O)[C@H](CO)NC(=O)[C@@H](NC(=O)CNC(=O)[C@H](CCCNC(=N)N)NC(=O)[C@H](CC(C)C)NC(=O)[C@@H](NC(=O)[C@@H](N)CCCCN)[C@@H](C)CC)C(C)C)C(=O)N[C@@H](CCSC)C(=O)N[C@@H](CCCNC(=N)N)C(=O)N[C@@H](CCCNC(=N)N)C(=O)N[C@H](C(=O)N[C@@H](CC(C)C)C(=O)N[C@H](C(=O)NCC(=O)N[C@@H](CCCCN)C(=O)N[C@@H](CCCCN)C(N)=O)[C@@H](C)O)[C@@H](C)CC (H-KILRGVSKKIMRRILTGKK-NH2),inactive,< 5%,32 µg/mL,32 µg/mL,2 µg/mL,2 µg/mL,4 µg/mL,4 µg/mL,64 µg/mL,32 µg/mL,32 µg/mL,> 256 µg/mL,> 256 µg/mL,128 µg/mL,64 µg/mL,64 µg/mL,32 µg/mL,16 µg/mL,
CC[C@H](C)[C@H](NC(=O)[C@H](CCCCN)NC(=O)[C@H](CCCCN)NC(=O)[C@H](CO)NC(=O)[C@@H](NC(=O)CNC(=O)[C@H](CCCNC(=N)N)NC(=O)[C@H](CC(C)C)NC(=O)[C@@H](NC(=O)[C@@H](N)CCCCN)[C@@H](C)CC)C(C)C)C(=O)N[C@@H](CCSC)C(=O)N[C@@H](CCCNC(=N)N)C(=O)N[C@@H](CCCNC(=N)N)C(=O)N[C@H](C(=O)N[C@@H](CO)C(=O)N[C@@H](CCCCN)C(=O)N[C@@H](CC(=O)O)C(=O)N[C@H](C(=O)N[C@@H](CC(C)C)C(=O)N[C@H](C(=O)NCC(=O)N[C@@H](CCCCN)C(=O)N[C@@H](CCCCN)C(N)=O)[C@@H](C)O)[C@@H](C)CC)[C@@H](C)CC (H-KILRGVSKKIMRRISKDILTGKK-NH2),inactive,< 5%,64 µg/mL,16 µg/mL,8 µg/mL,8 µg/mL,1 µg/mL,1 µg/mL,4 µg/mL,16 µg/mL,16 µg/mL,> 256 µg/mL,> 256 µg/mL,> 128 µg/mL,16 µg/mL,16 µg/mL,25 µg/mL,12.5 µg/mL,
CC[C@H](C)[C@H](NC(=O)[C@H](CCCCN)NC(=O)[C@H](CCCCN)NC(=O)[C@H](CO)NC(=O)[C@@H](NC(=O)CNC(=O)[C@H](CCCNC(=N)N)NC(=O)[C@H](CC(C)C)NC(=O)[C@@H](NC(=O)[C@@H](N)CCCCN)[C@@H](C)CC)C(C)C)C(=O)N[C@@H](CCSC)C(=O)N[C@@H](CCCNC(=N)N)C(=O)N[C@H](C(=O)N[C@@H](Cc1ccccc1)C(=O)N[C@@H](CC(C)C)C(=O)N[C@@H](CCCNC(=N)N)C(=O)N[C@@H](CCCNC(=N)N)C(N)=O)[C@@H](C)O (H-KILRGVSKKIMRTFLRR-NH2),inactive,< 5%,32 µg/mL,32 µg/mL,16 µg/mL,8 µg/mL,8 µg/mL,8 µg/mL,16 µg/mL,128 µg/mL,128 µg/mL,128 µg/mL,128 µg/mL,64 µg/mL,16 µg/mL,8 µg/mL,8 µg/mL,4 µg/mL,
CC[C@H](C)[C@H](NC(=O)[C@H](CCCNC(=N)N)NC(=O)[C@H](CCCCN)NC(=O)[C@H](CO)NC(=O)[C@@H](NC(=O)CNC(=O)[C@H](CCCNC(=N)N)NC(=O)[C@H](CC(C)C)NC(=O)[C@@H](NC(=O)[C@@H](N)CCCCN)[C@@H](C)CC)C(C)C)C(=O)N[C@@H](CC(C)C)C(=O)N[C@H](C(=O)NCC(=O)N[C@@H](CCCCN)C(=O)N[C@@H](CCCCN)C(N)=O)[C@@H](C)O (H-KILRGVSKRILTGKK-NH2),inactive,< 5%,> 256 µg/mL,> 256 µg/mL,> 128 µg/mL,> 128 µg/mL,> 64 µg/mL,> 64 µg/mL,,128 µg/mL,128 µg/mL,> 256 µg/mL,> 256 µg/mL,,> 128 µg/mL,> 128 µg/mL,100 µg/mL,50 µg/mL,
POLYMYXIN B,inactive,,,,,,0.5 µg/mL,0.5 µg/mL,0.25 µg/mL,0.25 µg/mL,0.25 µg/mL,,,0.5 µg/mL,,,3.2 µg/mL,2.4 µg/mL,MBC (Escherichia coli [2]): 0.5 µg/mL; MIC (Escherichia coli [2]): 0.5 µg/mL; MBC (Acinetobacter baumannii): 0.5 µg/mL; MIC (Acinetobacter baumannii): 0.5 µg/mL; MIC (Staphylococcus aureus): 32 µg/mL; MBC (Escherichia coli [6]): 0.125 µg/mL; MIC (Escherichia coli [6]): 0.125 µg/mL

# From ChEMBL document CHEMBL1156451 (J Biol Chem, 2007)
